Laboratory results from patent US20120156771A1, “FUNCTIONAL DISRUPTION OF AN IMMUNOGLOBULIN GENE IN AN AVIAN EMBRYONIC STEM CELL” (Origen Therapeutics, Inc., priority 2002, published 2012).

Tested on: chicken embryonic stem cells
Assay: Titration kill curve: morphology of cES cells under puromycin or neomycin selection
Assay type: cell-based
Parameters: key to Morphology of cES cells: ES: ES cells are present.; diff: ES cells are differentiated.; gone: no morphologically recognizable cells are present
Procedure: In a preferred embodiment, the concentration of puromycin required for selecting transfected cells is calculated as a titration kill curve. Titration kill curves for chicken embryonic stem cells are established by exposing cells in culture to puromycin concentrations varying from 0.0 to 1.0 μg/ml for 10 days (Table 7) and neomycin concentrations varying from 0.0 to 200 μg/ml (Table 8). The medium is changed every 2 days and fresh puromycin or neomycin is added. […] Puromycin concentrations of 0.3-1.0 μg/ml are used for selection of the transfected cultures. Neomycin concentrations over 40 μg/ml eliminated all cES cells within 7 days (Table 8).

With neomycin the “Morphology of cES cells” value (neomycin 10 μg/ml, day 1 under selection) was “ES”, the “Morphology of cES cells” value (neomycin 10 μg/ml, day 2 under selection) was “ES” and the “Morphology of cES cells” value (neomycin 10 μg/ml, day 3 under selection) was “ES”. For the same substance, the “Morphology of cES cells” value (neomycin 10 μg/ml, day 4 under selection) was “ES”, the “Morphology of cES cells” value (neomycin 10 μg/ml, day 5 under selection) was “ES” and the “Morphology of cES cells” value (neomycin 10 μg/ml, day 6 under selection) was “ES”. For the same substance, the “Morphology of cES cells” value (neomycin 10 μg/ml, day 7 under selection) was “ES”, the “Morphology of cES cells” value (neomycin 10 μg/ml, day 8 under selection) was “ES” and the “Morphology of cES cells” value (neomycin 10 μg/ml, day 9 under selection) was “ES”. The “Morphology of cES cells” value (neomycin 10 μg/ml, day 10 under selection) was “ES”, the “Morphology of cES cells” value (neomycin 20 μg/ml, day 1 under selection) was “ES” and the “Morphology of cES cells” value (neomycin 20 μg/ml, day 2 under selection) was “ES”. For the same substance, the “Morphology of cES cells” value (neomycin 20 μg/ml, day 3 under selection) was “ES”, the “Morphology of cES cells” value (neomycin 20 μg/ml, day 4 under selection) was “ES” and the “Morphology of cES cells” value (neomycin 20 μg/ml, day 5 under selection) was “ES”. For the same substance, the “Morphology of cES cells” value (neomycin 20 μg/ml, day 6 under selection) was “ES”, the “Morphology of cES cells” value (neomycin 20 μg/ml, day 7 under selection) was “ES” and the “Morphology of cES cells” value (neomycin 20 μg/ml, day 8 under selection) was “ES”. The “Morphology of cES cells” value (neomycin 20 μg/ml, day 9 under selection) was “ES”, the “Morphology of cES cells” value (neomycin 20 μg/ml, day 10 under selection) was “ES” and the “Morphology of cES cells” value (neomycin 30 μg/ml, day 1 under selection) was “ES”. The “Morphology of cES cells” value (neomycin 30 μg/ml, day 2 under selection) was “ES”, the “Morphology of cES cells” value (neomycin 30 μg/ml, day 3 under selection) was “ES” and the “Morphology of cES cells” value (neomycin 30 μg/ml, day 4 under selection) was “ES”. For the same substance, the “Morphology of cES cells” value (neomycin 30 μg/ml, day 5 under selection) was “ES”, the “Morphology of cES cells” value (neomycin 30 μg/ml, day 6 under selection) was “ES” and the “Morphology of cES cells” value (neomycin 30 μg/ml, day 7 under selection) was “ES/Diff”. The “Morphology of cES cells” value (neomycin 30 μg/ml, day 8 under selection) was “ES/diff”, the “Morphology of cES cells” value (neomycin 30 μg/ml, day 9 under selection) was “Diff” and the “Morphology of cES cells” value (neomycin 40 μg/ml, day 1 under selection) was “ES”. For the same substance, the “Morphology of cES cells” value (neomycin 40 μg/ml, day 2 under selection) was “ES”, the “Morphology of cES cells” value (neomycin 40 μg/ml, day 3 under selection) was “ES” and the “Morphology of cES cells” value (neomycin 40 μg/ml, day 4 under selection) was “ES”. For the same substance, the “Morphology of cES cells” value (neomycin 40 μg/ml, day 5 under selection) was “ES/Diff”, the “Morphology of cES cells” value (neomycin 40 μg/ml, day 7 under selection) was “dead” and the “Morphology of cES cells” value (neomycin 40 μg/ml, day 8 under selection) was “gone”. For the same substance, the “Morphology of cES cells” value (neomycin 40 μg/ml, day 9 under selection) was “gone”, the “Morphology of cES cells” value (neomycin 40 μg/ml, day 10 under selection) was “gone” and the “Morphology of cES cells” value (neomycin 50 μg/ml, day 1 under selection) was “ES”. For the same substance, the “Morphology of cES cells” value (neomycin 50 μg/ml, day 2 under selection) was “ES”, the “Morphology of cES cells” value (neomycin 50 μg/ml, day 3 under selection) was “ES” and the “Morphology of cES cells” value (neomycin 50 μg/ml, day 4 under selection) was “ES/Diff”. The “Morphology of cES cells” value (neomycin 50 μg/ml, day 5 under selection) was “ES/Diff”, the “Morphology of cES cells” value (neomycin 50 μg/ml, day 8 under selection) was “gone” and the “Morphology of cES cells” value (neomycin 50 μg/ml, day 9 under selection) was “gone”. For the same substance, the “Morphology of cES cells” value (neomycin 50 μg/ml, day 10 under selection) was “gone”, the “Morphology of cES cells” value (neomycin 60 μg/ml, day 1 under selection) was “ES” and the “Morphology of cES cells” value (neomycin 60 μg/ml, day 2 under selection) was “ES”. The “Morphology of cES cells” value (neomycin 60 μg/ml, day 3 under selection) was “ES”, the “Morphology of cES cells” value (neomycin 60 μg/ml, day 4 under selection) was “gone” and the “Morphology of cES cells” value (neomycin 60 μg/ml, day 5 under selection) was “Gone”. The “Morphology of cES cells” value (neomycin 60 μg/ml, day 6 under selection) was “gone”, the “Morphology of cES cells” value (neomycin 60 μg/ml, day 7 under selection) was “gone” and the “Morphology of cES cells” value (neomycin 60 μg/ml, day 8 under selection) was “gone”. For the same substance, the “Morphology of cES cells” value (neomycin 60 μg/ml, day 9 under selection) was “gone”, the “Morphology of cES cells” value (neomycin 60 μg/ml, day 10 under selection) was “gone” and the “Morphology of cES cells” value (neomycin 100 μg/ml, day 1 under selection) was “ES/Diff”. For the same substance, the “Morphology of cES cells” value (neomycin 100 μg/ml, day 2 under selection) was “Diff”, the “Morphology of cES cells” value (neomycin 100 μg/ml, day 3 under selection) was “dead” and the “Morphology of cES cells” value (neomycin 100 μg/ml, day 4 under selection) was “gone”. For the same substance, the “Morphology of cES cells” value (neomycin 100 μg/ml, day 5 under selection) was “Gone”, the “Morphology of cES cells” value (neomycin 100 μg/ml, day 6 under selection) was “gone” and the “Morphology of cES cells” value (neomycin 100 μg/ml, day 7 under selection) was “gone”. For the same substance, the “Morphology of cES cells” value (neomycin 100 μg/ml, day 8 under selection) was “gone”, the “Morphology of cES cells” value (neomycin 100 μg/ml, day 9 under selection) was “gone” and the “Morphology of cES cells” value (neomycin 100 μg/ml, day 10 under selection) was “gone”. The “Morphology of cES cells” value (neomycin 150 μg/ml, day 2 under selection) was “dead”, the “Morphology of cES cells” value (neomycin 150 μg/ml, day 3 under selection) was “dead” and the “Morphology of cES cells” value (neomycin 150 μg/ml, day 4 under selection) was “gone”. The “Morphology of cES cells” value (neomycin 150 μg/ml, day 5 under selection) was “Gone”, the “Morphology of cES cells” value (neomycin 150 μg/ml, day 6 under selection) was “gone” and the “Morphology of cES cells” value (neomycin 150 μg/ml, day 7 under selection) was “gone”. For the same substance, the “Morphology of cES cells” value (neomycin 150 μg/ml, day 8 under selection) was “gone”, the “Morphology of cES cells” value (neomycin 150 μg/ml, day 9 under selection) was “gone” and the “Morphology of cES cells” value (neomycin 150 μg/ml, day 10 under selection) was “gone”. The “Morphology of cES cells” value (neomycin 200 μg/ml, day 2 under selection) was “dead”, the “Morphology of cES cells” value (neomycin 200 μg/ml, day 3 under selection) was “gone” and the “Morphology of cES cells” value (neomycin 200 μg/ml, day 4 under selection) was “gone”. For the same substance, the “Morphology of cES cells” value (neomycin 200 μg/ml, day 5 under selection) was “Gone”, the “Morphology of cES cells” value (neomycin 200 μg/ml, day 6 under selection) was “gone” and the “Morphology of cES cells” value (neomycin 200 μg/ml, day 7 under selection) was “gone”. The “Morphology of cES cells” value (neomycin 200 μg/ml, day 8 under selection) was “gone”, the “Morphology of cES cells” value (neomycin 200 μg/ml, day 9 under selection) was “gone” and the “Morphology of cES cells” value (neomycin 200 μg/ml, day 10 under selection) was “gone”. For the same substance, the “Neomycin concentrations that eliminated all cES cells” value (within 7 days) was “over 40 μg/ml”.
